Counter-ions that a name gives are not always drawn.
What was measured:
NCI-H292 = assay: MTT assay, cytotoxic effect on NCI-H292; format: cell-based, human; conditions: Table 2, metabolites, MTT after 96 h
Method: NCI-H292: human mucoepidermoid lung carcinoma cells, ATCC-CRL-1848, standard medium: RPMI 1640 (Biochrom; #FG1215, stab. glutamine)+10% FCS (Sigma; #F2442), TWEAKR-positive; EGFR-positive,
(§1) The cells were cultivated by the standard method, with the growth media specified in section C-1. The test was carried out by detaching the cells with a solution of Accutase in PBS (from Biochrom AG #L2143), pelletizing, resuspending in culture medium, counting and sowing into a 96-well culture plate with white bottom (from Costar #3610) (NCI H292: 2500 cells/well; SK-HEP-1: 1000 cells/well; KPL-4: 1200 cells/well; in total volume 100 μl). The cells were then incubated in an incubator at 37° C. and 5% carbon dioxide. After 48 h, the medium was replaced. The antibody drug conjugates in 10 μl of culture medium in concentrations from 10^−5M to 10^−13M were then pipetted to the cells (in triplicate), and the assay was then incubated in an incubator at 37° C. and 5% carbon dioxide. The suspension cells were counted and sown into a 96-well culture plate with white bottom (from Costar #3610) (#3610) (MOLM-13: 2000 cells/well; NB4: 7000 cells/well; MV-4-11: 5000 cells/well in a total volume of 100 μl). After 6 hours of incubation at 37° C. and 5% carbon dioxide, the medium was changed and the antibody-drug conjugates or metabolites were added by pipette in 10 μl of culture medium in concentrations of 10^−5M to 10^−13M to the cells (triplicates) in 90 μl. The batch was incubated in an incubator at 37° C. and 5% carbon dioxide. After 96 h, the cell proliferation was detected using the MTT assay (ATCC, Manassas, Va., USA, catalogue No. 30-1010K). To this end, the MTT reagent was incubated with the cells for 4 h, followed by lysis of the cells overnight by addition of the detergent. The dye formed was detected at 570 nm (Infinite M1000 pro, Tecan). The measured data were used to calculate the IC50 of the growth inhibition using the DRC (dose response curve). The proliferation of cells which were not treated with test substance but were otherwise identically treated was defined as the 100% figure.

Caco-2 cells = assay: Cell permeability, flux assay using Caco-2 cells; format: in vitro ADME; conditions: for Papp (B-A): Caco-2, basal to apical, 2 hours
Method: The cell permeability of a substance can be investigated by means of in vitro testing in a flux assay using Caco-2 cells [M. D. Troutman and D. R. Thakker, Pharm. […] For this purpose, the cells were cultured for 15-16 days on 24-well filter plates. For the determination of permeation, the respective test substance was applied in a HEPES buffer to the cells either apically (A) or basally (B) and incubated for 2 hours. After 0 hours and after 2 hours, samples were taken from the cis and trans compartments. The samples were separated by HPLC (Agilent 1200, Böblingen, Germany) using reverse phase columns. The HPLC system was coupled via a Turbo Ion Spray Interface to a Triple Quadropole mass spectrometer API 4000 (AB SCIEX Deutschland GmbH, Darmstadt, Germany).
Of critical importance for toxophores which are released intracellularly is the permeability from B to A [Papp (B-A)] and the ratio of Papp (B-A) to Papp (A-B) (efflux ratio): The lower this permeability, the slower the active and passive transport processes of the substance through the monolayer of Caco-2 cells. If the efflux ratio, moreover, gives no indications as to active transport, the substance, following intracellular release, can remain in the cell for longer. As a consequence, the time available for interaction with the biochemical target (here: kinesin spindle protein KSP/Eg5) also increases.

SKHep-1 = assay: MTT assay, cytotoxic effect on SK-HEP-1; format: cell-based, human; conditions: Table 2, metabolites, MTT after 96 h
Method: SK-HEP-1: human liver cell cancer line, ATCC No. HTB-52, standard medium: MEM with Earle's salts+Glutamax I (Invitrogen 41090)+10% heat inactivated FCS (from Gibco, No. 10500-064); TWEAKR-positive
as §1, with “The proliferation of cells which were not treated with test substance but were otherwise identically treated was defined as the 100% figure.” left out

MV-4-11 = assay: MTT assay, cytotoxic effect on MV-4-11; format: cell-based, human; conditions: Table 2; metabolites; MTT after 96 h
Method: (§2) C-1a: Determination of the Cytotoxic Effect of the ADCs Directed Against CD123 and CXCR5
(§3) The analysis of the cytotoxic effect of the exemplary ADCs was carried out with various cell lines:
MV-4-11: human biphenotypic B myelomonocytic leukaemia cells obtained from peripheral blood, ATCC-CRL-9591, standard medium: IMDM (ATCC: 30-2005), +10% heat inactivated FCS (Gibco, No. 10500-064); CD123-positive
(§4) The cells were cultivated by the standard method, with the growth media specified in section C-1. The test was carried out by detaching the cells with a solution of Accutase in PBS (from Biochrom AG #L2143), pelletizing, resuspending in culture medium, counting and sowing into a 96-well culture plate with white bottom (from Costar #3610) (NCI H292: 2500 cells/well; SK-HEP-1: 1000 cells/well; KPL-4: 1200 cells/well; in total volume 100 μl). […] The suspension cells were counted and sown into a 96-well culture plate with white bottom (from Costar #3610) (#3610) (MOLM-13: 2000 cells/well; NB4: 7000 cells/well; MV-4-11: 5000 cells/well in a total volume of 100 μl). […] After 96 h, the cell proliferation was detected using the MTT assay (ATCC, Manassas, Va., USA, catalogue No. 30-1010K). […] The dye formed was detected at 570 nm (Infinite M1000 pro, Tecan). The measured data were used to calculate the IC50 of the growth inhibition using the DRC (dose response curve). […]

KPL-4 = assay: MTT assay, cytotoxic effect on KPL-4; format: cell-based, human; conditions: Table 2; metabolites; MTT after 96 h
Method: KPL4: human breast cancer cell line, Bayer Pharma AG (identity checked and confirmed on 19 Jul. 2012 at DSMZ), standard medium: RPMI 1640 (from Gibco; #21875-059, stab. L-glutamine)+10% heat inactivated FCS (Gibco, No. 10500-064); HER2-positive.
The cells were cultivated by the standard method, with the growth media specified in section C-1. The test was carried out by detaching the cells with a solution of Accutase in PBS (from Biochrom AG #L2143), pelletizing, resuspending in culture medium, counting and sowing into a 96-well culture plate with white bottom (from Costar #3610) (NCI H292: 2500 cells/well; SK-HEP-1: 1000 cells/well; KPL-4: 1200 cells/well; in total volume 100 μl). The cells were then incubated in an incubator at 37° C. and 5% carbon dioxide. After 48 h, the medium was replaced. […] The suspension cells were counted and sown into a 96-well culture plate with white bottom (from Costar #3610) (#3610) (MOLM-13: 2000 cells/well; NB4: 7000 cells/well; MV-4-11: 5000 cells/well in a total volume of 100 μl). […] After 96 h, the cell proliferation was detected using the MTT assay (ATCC, Manassas, Va., USA, catalogue No. 30-1010K). […] The dye formed was detected at 570 nm (Infinite M1000 pro, Tecan). The measured data were used to calculate the IC50 of the growth inhibition using the DRC (dose response curve). […]

[1] = biological target: T1, human kinesin spindle protein KSP/Eg5 (Homo sapiens, UniProt P52732); assay: Inhibition of the kinesin spindle protein KSP/Eg5 (ATPase activity, malachite green); format: biochemical; conditions: motor domain 10 nM, microtubuli, ATP 500 μM, 2 h RT
T1 construct: The motor domain of the human kinesin spindle protein KSP/Eg5; purchased tebu-bio/Cytoskeleton Inc 027EG01-XL
T1 sequence (P52732 18-359 limits assumed): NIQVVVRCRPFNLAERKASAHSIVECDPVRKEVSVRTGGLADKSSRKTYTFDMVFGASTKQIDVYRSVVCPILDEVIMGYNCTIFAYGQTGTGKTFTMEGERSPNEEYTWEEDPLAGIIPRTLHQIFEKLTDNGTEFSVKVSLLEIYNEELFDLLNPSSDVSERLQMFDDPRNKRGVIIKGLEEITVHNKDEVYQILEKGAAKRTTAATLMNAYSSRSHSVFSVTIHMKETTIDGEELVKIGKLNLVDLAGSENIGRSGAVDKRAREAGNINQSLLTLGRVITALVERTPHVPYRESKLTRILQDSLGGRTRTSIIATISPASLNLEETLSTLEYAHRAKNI
Method: The motor domain of the human kinesin spindle protein KSP/Eg5 (tebu-bio/Cytoskeleton Inc, No. 027EG01-XL) was incubated in a concentration of 10 nM with microtubuli (bovine or porcine, tebu-bio/Cytoskeleton Inc) stabilized with 50 μg/ml taxol (Sigma No. T7191-5MG) for 5 min at RT in 15 mM PIPES, pH 6.8 (5 mM MgCl2 and 10 mM DTT, Sigma). […] Incubation was at RT for 2 h. ATPase activity was detected by detecting the inorganic phosphate formed using malachite green (Biomol). […] The positive controls used were monastrol (Sigma, M8515-1 mg) and ispinesib (AdooQ Bioscience A10486). The individual data of the dose-activity curve are eight-fold determinations. The IC50 values are means of two independent experiments.

MOLM-13 = assay: MTT assay, cytotoxic effect on MOLM-13; format: cell-based, human; conditions: Table 2; metabolites; MTT after 96 h
Method: as §2, §3
MOLM-13: human acute monocytic leukaemia cells (AML-M5a), DSMZ, No. ACC 554, standard medium: RPMI 1640 (from Gibco; #21875-059, stab. L-glutamine)+20% heat inactivated FCS (Gibco, No. 10500-064); CD123-positive.
as §4

| SMILES | IC50 (NCI-H292; Homo sapiens, NCI-H292) [nM] | Papp (B-A) (Caco-2 cells) [×10⁻⁶ cm/s] | IC50 (SKHep-1; Homo sapiens, SK-HEP1) [nM] | IC50 (MV-4-11) [nM] | IC50 (NCI-H292) [nM] | IC50 (KPL-4) [nM] | IC50 [1] [nM] | IC50 (MOLM-13) [nM] | Efflux ratio compared with the reference metabolites (Caco-2 cells; Caco-2, in words) | Transport from the cell compared with the reference metabolites (Caco-2 cells; Caco-2, in words) | Efflux ratio (Caco-2 cells; Caco-2, ratio of Papp (B-A) to Papp (A-B)) | IC50 (SKHep-1) [nM] |
| --- | --- | --- | --- | --- | --- | --- | --- | --- | --- | --- | --- | --- |
| CC(C)(C)[C@H](c1cc(-c2cc(F)ccc2F)cn1Cc1ccccc1)N(CC[C@H](N)C(=O)NCCNC(=O)CNC(=O)CC(SC[C@H](N)C(=O)O)C(=O)O)C(=O)CO (mixture of isomers) [Example Rm1, 4-[(2-{[2-({(2S)-2-Amino-4-[{(1R)-1-[1-benzyl-4-(2,5-difluorophenyl)-1H-pyrrol-2-yl]-2,2-dimethylpropyl}(glycoloyl)amino]butanoyl}amino)ethyl]amino}-2-oxoethyl)amino]-2-{[(2R)-2-amino-2-carboxyethyl]sulfanyl}-4-oxobutanoic Acid Trifluoroacetic Acid Salt] | 63.6 | 1.3 | 19 | – | – | – | – | – | – | – | – | – |
| CC(C)(C)[C@H](c1cc(-c2cc(F)ccc2F)cn1Cc1ccccc1)N(CC[C@H](N)C(=O)NCCNC(=O)CNC(=O)C(CC(=O)O)SC[C@H](N)C(=O)O)C(=O)CO (mixture of isomers) [Example Rm2, 4-[(2-{[2-({(2S)-2-Amino-4-[{(1R)-1-[1-benzyl-4-(2,5-difluorophenyl)-1H-pyrrol-2-yl]-2,2-dimethylpropyl}(glycoloyl)amino]butanoyl}amino)ethyl]amino}-2-oxoethyl)amino]-3-{[(2R)-2-amino-2-carboxyethyl]sulfanyl}-4-oxobutanoic Acid Trifluoroacetic Acid Salt] | 276 | – | 89 | – | – | – | – | – | – | – | – | – |
| CC(C)(C)[C@H](c1cc(-c2cc(F)ccc2F)cn1Cc1ccccc1)N(CC[C@H](N)C(=O)NCCNC(=O)[C@@H](CCC(=O)O)NC(=O)CNC(=O)CC(SC[C@H](N)C(=O)O)C(=O)O)C(=O)CO.O=C(O)C(F)(F)F (stereo partly drawn) [Example M1, N-(3-{[(2R)-2-Amino-2-carboxyethyl]sulfanyl}-3-carboxypropanoyl)glycyl-N-[2-({(25)-2-amino-4-[{(1R)-1-[1-benzyl-4-(2,5-difluorophenyl)-1H-pyrrol-2-yl]-2,2-dimethylpropyl}(glycoloyl)amino]butanoyl}amino)ethyl]-D-alpha-glutamine trifluoroacetic Acid Salt] | – | 0.12 | – | 302 | 500 | 500 | 2.13 | 125 | reduced efflux ratio | reduced transport from the cell | 0.8 | 98.8 |

From patent publication US11433140B2, “Specific antibody drug conjugates (ADCs) having KSP inhibitors” (Bayer Pharma Aktiengesellschaft, priority 2016, dated 2022)
